According to patent US20200216439A1, “HETERO-1,5,6,7-TETRAHYDRO-4H-INDOL-4-ONES” (BAYER PHARMA AKTIENGESELLSCHAFT, priority 2015, published 2020):

Each compound was assayed against T1, catalytic domain of human Bub1 (amino acids 704-1085) (Homo sapiens, UniProt O43683) (assay: Bub1 kinase assay (TR-FRET)). Settings: TR-FRET; ATP 10 μM, peptide substrate 1 μM; 60 min at 22° C.; average or median if tested more than once; read-out: Inhibition of Bub1 kinase IC50.
T1 construct: catalytic domain of human Bub1 (amino acids 704-1085); His6 (N); made in house; host or cells: Hi5 insect cells
Assay type: biochemical
How it was run: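 Human Bub1 catalytic domain (704-1085, His6-tagged, Hi5-expressed, ~200 ng/mL) preincubated with compound 15 min at 22 °C, then reacted 60 min at 22 °C with 10 μM ATP and 1 μM biotinylated peptide substrate, pH 7.5. EDTA stop; TR-FRET 665/620 ratio; IC50 from 4-parameter fit, 11 concentrations in duplicate.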

T1 sequence (O43683 704-1085): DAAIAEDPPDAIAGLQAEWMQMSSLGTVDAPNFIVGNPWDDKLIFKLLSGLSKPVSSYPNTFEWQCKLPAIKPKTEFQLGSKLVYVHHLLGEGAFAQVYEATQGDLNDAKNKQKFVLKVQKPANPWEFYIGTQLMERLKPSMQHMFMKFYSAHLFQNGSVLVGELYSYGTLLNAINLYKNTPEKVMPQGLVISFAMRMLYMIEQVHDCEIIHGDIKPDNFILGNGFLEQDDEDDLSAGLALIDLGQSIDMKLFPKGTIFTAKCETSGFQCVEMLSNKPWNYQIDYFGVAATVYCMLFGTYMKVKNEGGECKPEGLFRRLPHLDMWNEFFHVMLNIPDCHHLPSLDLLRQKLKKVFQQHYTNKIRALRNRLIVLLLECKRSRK

Row | SMILES | IC50 [nM]
1 | CC(C)OC(=O)N1CC(=O)c2c([nH]c(-c3ccnc(NC(=O)[C@H]4C[C@H]4F)c3)c2Nc2ccccc2)C1 (relative stereo) [Example 157, Isopropyl 3-anilino-2-[2-({[rel-(1R,2R)-2-fluorocyclopropyl]carbonyl}amino)pyridin-4-yl]-4-oxo-1,4,5,7-tetrahydro-6H-pyrrolo[2,3-c]pyridine-6-carboxylate] | 7
2 | O=C1CN(S(=O)(=O)CC2CCOCC2)Cc2[nH]c(-c3ccncc3)c(Nc3ccccc3)c21 [Example 71, 3-(phenylamino)-2-(pyridin-4-yl)-6-[(tetrahydro-2H-pyran-4-ylmethyl)sulfonyl]-1,5,6,7-tetrahydro-4H-pyrrolo[2,3-c]pyridin-4-one] | 8
3 | CC(C)OC(=O)N1CC(=O)c2c([nH]c(-c3ccnc(NC(=O)C4(F)CC4)c3)c2Nc2ccccc2)C1 [Example 159, Isopropyl 3-anilino-2-{2-([(1-fluorocyclopropyl)carbonyl]amino}pyridin-4-yl)-4-oxo-1,4,5,7-tetrahydro-6H-pyrrolo[2,3-c]pyridine-6-carboxylate] | 22
4 | O=C1CN(S(=O)(=O)CCO)Cc2[nH]c(-c3ccncc3)c(Nc3ccccc3)c21 [Example 123, 3-Anilino-6-[(2-hydroxyethyl)sulfonyl]-2-(pyridin-4-yl)-1,5,6,7-tetrahydro-4H-pyrrolo[2,3-c]pyridin-4-one] | 3
5 | CC(C)(O)CC(=O)N1CC(=O)c2c([nH]c(-c3ccnc(NC(=O)[C@@H]4C[C@@H]4F)c3)c2Nc2ccccc2)C1 [Example 201] | 6
6 | COC(=O)N1CC(=O)c2c([nH]c(-c3ccnc(NC(C)=O)c3)c2Nc2ccccc2)C1 [Example 31, Methyl 2-[2-(acetylamino)pyridin-4-yl]-4-oxo-3-(phenylamino)-1,4,5,7-tetrahydro-6H-pyrrolo[2,3-c]pyridine-6-carboxylate] | 7
7 | COc1cnccc1-c1[nH]c2c(c1Nc1ccccc1)C(=O)CSC2 [Example 39, 2-(3-Methoxypyridin-4-yl)-3-(phenylamino)-1,7-dihydrothiopyrano[3,4-b]pyrrol-4(5H)-one] | 81
8 | O=C1CN(C(=O)NC2CC2)Cc2[nH]c(-c3ccncc3)c(Nc3ccccc3)c21 [Example 84, N-Cyclopropyl-4-oxo-3-(phenylamino)-2-(pyridin-4-yl)-1,4,5,7-tetrahydro-6H-pyrrolo[2,3-c]pyridine-6-carboxamide] | 9
9 | CC(=O)Nc1cc(-c2[nH]c3c(c2Nc2ccc(C)cc2)C(=O)CN(C(=O)OC(C)(C)C)C3)ccn1 [Example 295, tert-Butyl 2-(2-acetamidopyridin-4-yl)-3-[(4-methylphenyl)amino]-4-oxo-1,4,5,7-tetrahydro-6H-pyrrolo[2,3-c]pyridine-6-carboxylate] | 363
10 | COC(=O)N1CC(=O)c2c([nH]c(-c3ccnc(NC(=O)C4(F)CC4)c3)c2Nc2ccccc2)C1 [Example 147, Methyl 3-anilino-2-{2-([(1-fluorocyclopropyl)carbonyl]amino}pyridin-4-yl)-4-oxo-1,4,5,7-tetrahydro-6H-pyrrolo[2,3-c]pyridine-6-carboxylate] | 8
11 | CC(C)(C)OC(=O)N1CC(=O)c2c([nH]c(-c3ccnc(NC(=O)C4(F)CC4)c3)c2Nc2ccccc2)C1 [Example 131, tert-Butyl 3-anilino-2-{2-([(1-fluorocyclopropyl)carbonyl]amino}pyridin-4-yl)-4-oxo-1,4,5,7-tetrahydro-6H-pyrrolo[2,3-c]pyridine-6-carboxylate] | 23
12 | O=C1CNCc2[nH]c(-c3ccncc3OCC(F)(F)F)c(Nc3ccccc3)c21 [Example 225, 3-Anilino-2-[3-(2,2,2-trifluoroethoxy)pyridin-4-yl]-1,5,6,7-tetrahydro-4H-pyrrolo[2,3-c]pyridin-4-one] | 1020
13 | CC(=O)Nc1cc(-c2[nH]c3c(c2Nc2ccccc2)C(=O)CN(C(=O)c2ncco2)C3)ccn1 [Example 199, N-4-[6-(1,3-Oxazol-2-ylcarbonyl)-4-oxo-3-(phenylamino)-4,5,6,7-tetrahydro-1H-pyrrolo[2,3-c]pyridin-2-yl]pyridin-2-ylacetamide] | 20
